ChEMBL document CHEMBL5465560, “Selectivity Literature for EUbOPEN Chemogenomic Library” (2024)

Experiments:
[1] = Selectivity interaction (KinomeScan (DiscoverX)) EUB0000092b CDK2H; details: at 10 µM
[2] = molecular target: CDK4/Cyclin D3 (Homo sapiens) (UniProt P11802+P30281); test: (§1) Selectivity interaction (KinomeScan (DiscoverX)) EUB0000655a CDK4; format: protein-complex assay; details: at 10 µM
[3] = molecular target: Cyclin-dependent kinase 4/cyclin D1 (Homo sapiens) (UniProt P11802+P24385); test: as §1; format: protein-complex assay; details: at 10 µM
[4] = molecular target: T1, Serine/threonine-protein kinase RIO3 (Homo sapiens) (UniProt O14730); test: Selectivity interaction (KinomeScan (DiscoverX)) EUB0000655a RIOK3; details: at 10 µM
T1 sequence (whole entry): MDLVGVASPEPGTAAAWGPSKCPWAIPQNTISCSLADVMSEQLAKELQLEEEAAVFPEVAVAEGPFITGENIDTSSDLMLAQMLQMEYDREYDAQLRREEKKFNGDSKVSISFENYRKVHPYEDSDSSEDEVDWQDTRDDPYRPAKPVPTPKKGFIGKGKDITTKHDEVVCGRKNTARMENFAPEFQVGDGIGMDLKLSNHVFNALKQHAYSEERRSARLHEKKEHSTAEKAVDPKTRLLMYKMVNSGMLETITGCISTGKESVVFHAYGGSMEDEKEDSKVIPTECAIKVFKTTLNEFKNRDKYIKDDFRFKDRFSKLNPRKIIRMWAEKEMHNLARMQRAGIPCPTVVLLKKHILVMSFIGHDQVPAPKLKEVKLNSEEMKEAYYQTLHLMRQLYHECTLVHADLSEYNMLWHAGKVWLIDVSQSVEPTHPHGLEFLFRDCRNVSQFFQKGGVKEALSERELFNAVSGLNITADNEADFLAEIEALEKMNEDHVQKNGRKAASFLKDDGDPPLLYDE

[5] = molecular target: Wee1-like protein kinase (Homo sapiens) (UniProt P30291); test: Selectivity interaction (KinomeScan (DiscoverX)) EUB0000655a WEE1; details: at 10 µM
[6] = molecular target: Mitogen-activated protein kinase kinase kinase 10 (Homo sapiens) (UniProt Q02779); test: Selectivity interaction (ProQinase) EUB0000171b MAP3K10
[7] = molecular target: Potassium voltage-gated channel subfamily A member 5 (Homo sapiens) (UniProt P22460); test: Selectivity interaction (Panel of kinases, GPCRs, ion channels and transporters (enzymatic assay)) EUB0000266bCl KCNA5
[8] = molecular target: Activin receptor type-1-like (Homo sapiens) (UniProt P37023); test: Selectivity interaction (KinomeScan (DiscoverX)) EUB0000666a ACVRL1; details: at 10 µM
[9] = molecular target: Dual specificity mitogen-activated protein kinase kinase 2 (Homo sapiens) (UniProt P36507); test: Selectivity interaction (ActivX KiNativ screen (kinase selectivity in THP-1 cell lysates)) EUB0000639a MAP2K2; format: subcellular; details: lysate, at 5 µM
[10] = molecular target: T2, MAP kinase-activated protein kinase 5 (Homo sapiens) (UniProt Q8IW41); test: Selectivity interaction (SelectScreen profiling (Invitrogen)) EUB0000607a MAPKAPK5; details: at 2 µM
T2 sequence (whole entry): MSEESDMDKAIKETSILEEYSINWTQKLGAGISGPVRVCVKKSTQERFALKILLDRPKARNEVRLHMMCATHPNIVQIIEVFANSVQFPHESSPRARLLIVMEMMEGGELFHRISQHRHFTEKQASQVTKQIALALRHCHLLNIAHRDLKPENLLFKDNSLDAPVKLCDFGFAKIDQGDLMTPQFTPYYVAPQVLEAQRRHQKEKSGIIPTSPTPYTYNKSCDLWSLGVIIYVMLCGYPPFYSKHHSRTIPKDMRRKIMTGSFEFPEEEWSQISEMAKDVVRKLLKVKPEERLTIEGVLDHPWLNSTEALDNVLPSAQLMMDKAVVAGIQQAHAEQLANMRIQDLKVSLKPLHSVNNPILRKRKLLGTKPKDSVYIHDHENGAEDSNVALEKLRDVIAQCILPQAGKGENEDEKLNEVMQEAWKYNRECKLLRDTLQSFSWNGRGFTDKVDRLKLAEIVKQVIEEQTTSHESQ

[11] = molecular target: Mitogen-activated protein kinase kinase kinase 14 (Homo sapiens) (UniProt Q99558); test: Selectivity interaction (KinomeScan (DiscoverX)) EUB0000695a MAP3K14; details: at 100 nM
[12] = molecular target: T3, NUAK family SNF1-like kinase 1 (Homo sapiens) (UniProt O60285); test: Selectivity interaction (Kinase panel (literature)) EUB0001199aCl NUAK1; details: at 1 µM
T3 sequence (whole entry): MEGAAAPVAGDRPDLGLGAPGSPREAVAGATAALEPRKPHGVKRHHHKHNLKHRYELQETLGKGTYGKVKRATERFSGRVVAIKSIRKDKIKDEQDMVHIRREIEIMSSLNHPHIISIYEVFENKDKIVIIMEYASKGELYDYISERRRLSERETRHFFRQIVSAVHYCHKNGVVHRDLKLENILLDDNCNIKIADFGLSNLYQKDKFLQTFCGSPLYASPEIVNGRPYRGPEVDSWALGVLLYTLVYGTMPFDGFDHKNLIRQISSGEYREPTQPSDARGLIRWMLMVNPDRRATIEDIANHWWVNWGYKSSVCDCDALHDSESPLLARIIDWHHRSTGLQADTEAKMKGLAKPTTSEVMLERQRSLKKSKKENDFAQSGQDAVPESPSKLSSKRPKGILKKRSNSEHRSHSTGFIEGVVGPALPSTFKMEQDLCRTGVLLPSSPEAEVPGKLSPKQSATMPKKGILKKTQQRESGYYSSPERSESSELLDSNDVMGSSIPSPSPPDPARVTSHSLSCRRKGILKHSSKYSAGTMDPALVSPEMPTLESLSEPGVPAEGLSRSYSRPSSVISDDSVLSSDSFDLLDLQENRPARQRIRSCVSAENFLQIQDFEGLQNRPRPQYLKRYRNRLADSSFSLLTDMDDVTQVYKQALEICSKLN

[13] = molecular target: T4, Aurora kinase A (Homo sapiens) (UniProt O14965); test: Selectivity interaction (Kinase panel (literature)) EUB0001199aCl STK6; details: at 1 µM
T4 sequence (whole entry): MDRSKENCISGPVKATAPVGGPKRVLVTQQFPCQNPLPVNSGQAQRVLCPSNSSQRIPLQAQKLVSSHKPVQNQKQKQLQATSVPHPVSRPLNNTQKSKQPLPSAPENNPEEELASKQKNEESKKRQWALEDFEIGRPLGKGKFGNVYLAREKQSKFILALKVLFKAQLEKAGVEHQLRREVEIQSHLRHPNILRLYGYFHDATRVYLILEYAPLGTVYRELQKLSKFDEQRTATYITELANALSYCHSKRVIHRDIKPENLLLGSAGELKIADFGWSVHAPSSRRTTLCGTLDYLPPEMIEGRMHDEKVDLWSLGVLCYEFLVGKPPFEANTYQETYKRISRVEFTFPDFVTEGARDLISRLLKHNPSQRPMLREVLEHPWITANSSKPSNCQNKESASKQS

Sequence of Mitogen-activated protein kinase kinase kinase 10 (Homo sapiens) (Q02779 whole entry, looked up): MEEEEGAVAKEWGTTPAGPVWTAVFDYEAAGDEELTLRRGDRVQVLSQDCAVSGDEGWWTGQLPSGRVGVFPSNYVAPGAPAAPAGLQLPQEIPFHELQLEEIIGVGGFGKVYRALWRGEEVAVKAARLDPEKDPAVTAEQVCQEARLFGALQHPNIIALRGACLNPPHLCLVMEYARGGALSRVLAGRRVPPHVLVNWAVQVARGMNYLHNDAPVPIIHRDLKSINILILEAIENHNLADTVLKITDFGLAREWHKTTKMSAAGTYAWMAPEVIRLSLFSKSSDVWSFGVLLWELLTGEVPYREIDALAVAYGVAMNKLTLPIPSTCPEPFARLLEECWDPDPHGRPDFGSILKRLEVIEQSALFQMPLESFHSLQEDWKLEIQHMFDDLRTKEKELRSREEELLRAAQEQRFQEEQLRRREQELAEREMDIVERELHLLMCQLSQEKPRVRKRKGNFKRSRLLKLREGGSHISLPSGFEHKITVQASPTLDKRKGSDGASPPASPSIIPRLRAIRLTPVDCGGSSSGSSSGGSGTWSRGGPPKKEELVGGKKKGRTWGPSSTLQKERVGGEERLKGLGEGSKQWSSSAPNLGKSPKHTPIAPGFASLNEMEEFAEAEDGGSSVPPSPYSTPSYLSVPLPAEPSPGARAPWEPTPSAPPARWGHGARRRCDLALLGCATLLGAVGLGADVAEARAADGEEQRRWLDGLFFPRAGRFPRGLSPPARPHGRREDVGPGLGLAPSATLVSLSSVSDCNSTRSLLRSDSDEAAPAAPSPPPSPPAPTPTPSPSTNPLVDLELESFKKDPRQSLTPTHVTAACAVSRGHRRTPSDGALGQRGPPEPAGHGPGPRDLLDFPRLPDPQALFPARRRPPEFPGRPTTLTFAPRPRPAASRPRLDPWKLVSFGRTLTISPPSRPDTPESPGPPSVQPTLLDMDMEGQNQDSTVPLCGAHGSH
Sequence of Wee1-like protein kinase (Homo sapiens) (P30291 whole entry, looked up): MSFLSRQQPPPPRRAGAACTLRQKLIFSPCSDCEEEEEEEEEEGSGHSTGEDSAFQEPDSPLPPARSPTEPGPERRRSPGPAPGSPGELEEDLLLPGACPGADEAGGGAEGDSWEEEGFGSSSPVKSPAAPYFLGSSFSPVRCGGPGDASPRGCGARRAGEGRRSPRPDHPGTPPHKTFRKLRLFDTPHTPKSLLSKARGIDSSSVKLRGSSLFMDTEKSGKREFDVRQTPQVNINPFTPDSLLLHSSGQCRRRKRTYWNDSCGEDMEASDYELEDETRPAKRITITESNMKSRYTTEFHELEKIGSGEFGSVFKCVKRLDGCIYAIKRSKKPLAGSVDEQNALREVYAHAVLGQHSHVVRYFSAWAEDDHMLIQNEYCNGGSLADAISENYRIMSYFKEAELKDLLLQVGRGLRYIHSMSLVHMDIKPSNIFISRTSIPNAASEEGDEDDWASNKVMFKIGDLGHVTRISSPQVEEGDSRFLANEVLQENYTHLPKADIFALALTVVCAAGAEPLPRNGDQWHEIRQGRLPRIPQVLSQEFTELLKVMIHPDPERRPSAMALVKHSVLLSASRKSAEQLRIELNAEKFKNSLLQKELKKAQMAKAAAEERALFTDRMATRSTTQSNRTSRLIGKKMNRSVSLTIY
Sequence of Mitogen-activated protein kinase kinase kinase 14 (Homo sapiens) (Q99558 whole entry, looked up): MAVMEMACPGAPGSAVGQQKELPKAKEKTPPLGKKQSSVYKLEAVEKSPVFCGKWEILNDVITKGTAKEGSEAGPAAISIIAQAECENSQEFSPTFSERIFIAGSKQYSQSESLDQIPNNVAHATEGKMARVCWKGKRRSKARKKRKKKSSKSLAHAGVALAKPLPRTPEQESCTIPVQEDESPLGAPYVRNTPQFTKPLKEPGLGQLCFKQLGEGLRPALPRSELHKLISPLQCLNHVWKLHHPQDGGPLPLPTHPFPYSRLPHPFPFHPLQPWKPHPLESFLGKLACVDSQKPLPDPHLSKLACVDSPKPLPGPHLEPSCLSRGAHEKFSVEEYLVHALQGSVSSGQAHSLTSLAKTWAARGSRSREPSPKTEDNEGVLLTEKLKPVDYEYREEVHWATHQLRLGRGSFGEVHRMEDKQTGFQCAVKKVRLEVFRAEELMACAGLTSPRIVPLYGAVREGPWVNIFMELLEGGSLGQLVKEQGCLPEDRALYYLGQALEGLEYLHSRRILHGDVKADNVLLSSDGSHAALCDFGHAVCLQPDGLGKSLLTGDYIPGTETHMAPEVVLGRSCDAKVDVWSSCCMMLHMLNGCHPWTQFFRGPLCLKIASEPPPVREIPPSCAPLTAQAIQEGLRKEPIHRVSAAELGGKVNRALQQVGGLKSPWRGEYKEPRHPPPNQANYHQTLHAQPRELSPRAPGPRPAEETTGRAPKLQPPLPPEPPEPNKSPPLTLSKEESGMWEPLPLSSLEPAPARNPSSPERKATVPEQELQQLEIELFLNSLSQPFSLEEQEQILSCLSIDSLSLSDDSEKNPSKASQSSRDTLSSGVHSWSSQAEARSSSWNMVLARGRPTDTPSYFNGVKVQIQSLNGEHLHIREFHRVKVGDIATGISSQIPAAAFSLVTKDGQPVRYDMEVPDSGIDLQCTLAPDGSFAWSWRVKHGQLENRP
Sequence of Dual specificity mitogen-activated protein kinase kinase 2 (Homo sapiens) (P36507 whole entry): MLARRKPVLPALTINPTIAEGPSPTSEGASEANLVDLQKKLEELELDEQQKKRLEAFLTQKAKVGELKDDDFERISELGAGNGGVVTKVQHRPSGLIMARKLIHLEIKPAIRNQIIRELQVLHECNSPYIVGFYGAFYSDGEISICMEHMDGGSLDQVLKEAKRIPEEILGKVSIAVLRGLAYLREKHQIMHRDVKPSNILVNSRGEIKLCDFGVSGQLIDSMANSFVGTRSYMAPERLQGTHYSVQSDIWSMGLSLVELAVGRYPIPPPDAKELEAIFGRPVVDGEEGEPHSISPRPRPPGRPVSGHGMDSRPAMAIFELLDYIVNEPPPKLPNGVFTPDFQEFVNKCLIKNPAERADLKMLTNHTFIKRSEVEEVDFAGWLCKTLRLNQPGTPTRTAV
Sequence of Potassium voltage-gated channel subfamily A member 5 (Homo sapiens) (P22460 whole entry): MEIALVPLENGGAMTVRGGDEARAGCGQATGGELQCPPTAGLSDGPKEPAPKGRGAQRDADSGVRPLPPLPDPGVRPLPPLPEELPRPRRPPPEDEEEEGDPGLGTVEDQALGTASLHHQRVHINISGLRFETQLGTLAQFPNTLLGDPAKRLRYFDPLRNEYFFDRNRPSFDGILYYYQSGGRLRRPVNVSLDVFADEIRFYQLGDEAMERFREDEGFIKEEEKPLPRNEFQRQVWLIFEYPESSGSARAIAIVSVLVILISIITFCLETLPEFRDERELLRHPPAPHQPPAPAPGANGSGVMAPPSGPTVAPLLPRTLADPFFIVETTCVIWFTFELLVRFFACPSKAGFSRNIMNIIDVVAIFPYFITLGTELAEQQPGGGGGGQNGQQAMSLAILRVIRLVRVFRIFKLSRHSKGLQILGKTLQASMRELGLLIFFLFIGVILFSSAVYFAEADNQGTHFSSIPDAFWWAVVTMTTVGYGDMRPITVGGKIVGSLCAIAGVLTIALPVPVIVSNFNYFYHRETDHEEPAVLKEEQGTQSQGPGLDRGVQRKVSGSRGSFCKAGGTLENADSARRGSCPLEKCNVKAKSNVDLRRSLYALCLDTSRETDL
Sequence of Activin receptor type-1-like (Homo sapiens) (P37023 whole entry): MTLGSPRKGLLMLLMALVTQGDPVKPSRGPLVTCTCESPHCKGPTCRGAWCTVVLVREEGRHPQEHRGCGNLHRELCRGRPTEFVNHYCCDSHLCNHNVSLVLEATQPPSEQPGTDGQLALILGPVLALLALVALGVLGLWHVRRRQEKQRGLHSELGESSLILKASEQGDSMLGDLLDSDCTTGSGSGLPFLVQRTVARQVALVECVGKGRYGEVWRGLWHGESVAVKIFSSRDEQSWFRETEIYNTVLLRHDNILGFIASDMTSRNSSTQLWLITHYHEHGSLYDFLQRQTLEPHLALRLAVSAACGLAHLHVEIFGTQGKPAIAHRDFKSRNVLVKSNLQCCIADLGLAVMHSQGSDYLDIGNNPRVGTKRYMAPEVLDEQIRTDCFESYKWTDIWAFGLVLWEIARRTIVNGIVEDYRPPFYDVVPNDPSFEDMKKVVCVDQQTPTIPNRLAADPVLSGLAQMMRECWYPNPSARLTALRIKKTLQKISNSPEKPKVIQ

## CCC(=O)N1CCN(c2ccc(-n3c(=O)ccc4cnc5ccc(-c6cnc7ccccc7c6)cc5c43)cc2C(F)(F)F)CC1
[1]
  % of control: 97%

## CN(C)CCOc1ccc(-c2nc(-c3ccncc3)c(-c3ccc4c(c3)CC/C4=N\O)[nH]2)cc1
[2]
  % of control: 86%
[3]
  % of control: 58%
[4]
  % of control: 82%
[5]
  % of control: 100%

## C=CC(=O)Nc1cccc(C(=O)Nc2ccc(Nc3cc(-c4[nH]c(SC)nc4C)ccn3)cc2)c1
[6]; at 1 µM
  % of control: 27%
[6]; at 5 µM
  % of control: 4%

## CCn1c(-c2nc3cc(C(=O)N4CCCC(N)C4)ccc3n2C)cc2ccccc21 (centres undefined)
[7]
  pXC50: < 4.3 M

## O=C(NOC[C@H](O)CO)c1ccc(F)c(F)c1Nc1ccc(I)cc1F
[8]
  % of control: 100%

## CC[C@@H]1[C@H](F)C(=O)N[C@@H]1COc1nccc2cc(C(N)=O)c(OC)cc12 [ZIMLOVISERTIB]
[9]
  % of inhibition: -10.6%

## CNC(=O)Nc1ccc(-c2nc(N3CC4CCC(C3)O4)c3cnn(C4CCC5(CC4)OCCO5)c3n2)cc1
[10]
  % of inhibition: 5%

## Cc1cc(F)c(C(=O)Nc2cccc(-c3nncn3C(C)C)n2)cc1-n1cnc(C2CC2)c1
[11]
  % of control: 36%

## CN1Cc2nccc(-c3cn(C)nc3-c3ccc(F)cc3)c2C1=O
[12]
  % of inhibition: -6%
[13]
  % of inhibition: -4%
